Laboratory results published in patent US9850247B2 (Almac Discovery Limited, priority 2013, dated 2017).

Legend:
Wee-1 kinase = molecular target: T1, Wee-1 kinase (Homo sapiens, UniProt P30291); experiment: Measurement of Wee-1 kinase activity (ADP-Glo luminescent kit); assay type: biochemical
T1 construct: purchased Invitrogen PV3817
Procedure: Method 1: Measurement of Wee-1 Kinase Activity
In the measurement of Wee-1 activity, a commercial peptide Poly(Lys Tyr (4:1)) hydrobromide was purchased from Sigma Aldrich and used as the substrate. Activated Wee-1 kinase was purchased from Invitrogen (PV3817) and an ADP-Glo luminescent kit was purchased from Promega.
All reactions took place in […] volumes in reaction buffer containing 40 mM Tris-HCl and 20 mM magnesium chloride, supplemented with 0.1 mg/mL bovine serum albumin and 2 mM DTT. Compounds were serially diluted in buffer and 5 μL of each concentration pipetted into a white 384 well plate (Sigma Aldrich M6186). A 5 μL aliquot of the Wee-1 enzyme was added to each well and the plate centrifuged for 1 min to ensure mixing of the enzyme and inhibitor.
The plate was incubated at room temperature for 30 minutes before the addition of 2.0 μg/mL of substrate and 30 μM ATP in a 5 μL aliquot. The plate was centrifuged for one minute and incubated for 1 h at RT.
15 µL of ADP-Glo stop reagent was added to each well to quench the reaction and deplete unconverted ATP. The plate was incubated for a further 40 min in the dark at RT.
30 μL of ADP-Glo kinase detection reagent was added to each well, converting ADP to ATP, catalysing the generation of luciferin by luciferase. The plate was shaken for 1 min, and incubated in the dark for an additional hour.
Luminescence from each well was detected using the Biotek Synergy4 HD plate reader and the percentage inhibition of kinase activity calculated for each inhibitor tested. Positive (kinase only) and negative (no kinase) controls were added to each plate to ensure specific interaction of kinase and inhibitor. The IC50 concentration for each inhibitor was calculated by plotting the percentage kinase inhibition against concentration of inhibitor and the curve generated by non-linear regression fitting.

[1] = CLint estimates using human liver microsomes (Method 4); assay type: in vitro ADME; details: pH 7.4, 1 μM compound, read-out: Mics - CLint (HLM CLint)
Procedure: Method 4: Determination of CLint Estimates Using Human liver microsomes Test compounds (final concentration=1 μM; final DMSO concentration=0.1%) were incubated in 0.1 M phosphate buffer pH 7.4 with human liver microsomes (0.5 mg of protein/mL) at 37° C. Reactions were started by addition of NADPH in 0.1 M phosphate buffer pH 7.4 (final concentration 1 mM). 40 μL aliquots were removed at 2, 5, 10, 15, 20, 30, 40 and 50 min. Reactions were quenched in 80 μL of ice-cold methanol. Samples were subsequently frozen overnight then centrifuged at 3500 rpm for 20 min at 4° C. The supernatants were removed and transferred into analytical plates and analysed by LC/MS/MS. LC/MS/MS Method: All samples were analysed on a Waters Acquity I-Class coupled to a Waters Xevo TQD mass spectrometer. A Waters BEH C18 2.1×50 mm 1.7 μm column was used and mobile phases were water and methanol containing 0.1% formic acid as modifier. Analysis was by multiple reaction monitoring and conditions were optimised for each test compound. Data Analyses: From a plot of 1n peak area against time, the gradient of the line is determined. Subsequently, half-life and intrinsic clearance are calculated using the following equations. [formula] [formula] [formula] where V=Incubation volume (μL)/number of cells Method 5: Determination of Kinetic Solubility (in PBS Buffer)

T1 sequence (P30291 whole entry): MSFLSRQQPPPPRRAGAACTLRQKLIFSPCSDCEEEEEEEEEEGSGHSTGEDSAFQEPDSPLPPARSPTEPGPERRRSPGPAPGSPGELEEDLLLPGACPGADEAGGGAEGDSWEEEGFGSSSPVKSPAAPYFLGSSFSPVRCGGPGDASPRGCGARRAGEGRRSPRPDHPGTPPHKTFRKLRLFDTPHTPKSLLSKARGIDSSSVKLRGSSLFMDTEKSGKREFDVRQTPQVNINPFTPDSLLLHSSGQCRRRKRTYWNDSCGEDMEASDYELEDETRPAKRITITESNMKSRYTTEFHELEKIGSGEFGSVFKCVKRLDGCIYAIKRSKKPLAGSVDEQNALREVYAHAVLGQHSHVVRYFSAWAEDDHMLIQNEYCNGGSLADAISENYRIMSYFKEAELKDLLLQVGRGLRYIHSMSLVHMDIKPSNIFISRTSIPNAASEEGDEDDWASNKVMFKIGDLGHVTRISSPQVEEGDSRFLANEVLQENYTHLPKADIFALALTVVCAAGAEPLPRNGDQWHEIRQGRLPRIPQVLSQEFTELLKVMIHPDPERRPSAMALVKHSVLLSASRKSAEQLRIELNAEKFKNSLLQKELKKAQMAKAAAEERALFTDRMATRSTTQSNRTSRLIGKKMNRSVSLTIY

Structure (SMILES) | IC50 (Wee-1 kinase) [nM] | microsomal CLint at 1 μM [1] [µL/min/mg]
C[C@@H]1CN(c2ccc(Nc3ncc4c(n3)N(C)CN(c3c(Cl)cccc3Cl)C4=O)cc2)CCN1C [Example 32, (R)-3-(2,6-dichlorophenyl)-7-((4-(3,4-dimethylpiperazin-1-yl)phenyl)amino)-1-methyl-2,3-dihydropyrimido[4,5-d]pyrimidin-4(1H)-one] | 10 to 100 | 15 to 50
COC[C@H]1CN(c2ccc(Nc3ncc4c(n3)N(C)CN(c3c(Cl)cccc3Cl)C4=O)cc2)CCN1C [Example 65, (R)-3-(2,6-dichlorophenyl)-7-((4-(3-(methoxymethyl)-4-methylpiperazin-1-yl)phenyl)amino)-1-methyl-2,3-dihydropyrimido[4,5-d]pyrimidin-4(1H)-one] | 10 to 100 | –
CN1CN(c2c(Cl)cccc2Cl)C(=O)c2cnc(Nc3ccc(N4CCN(C)C(C(F)(F)F)C4)cc3)nc21 (stereo not drawn) [Example 68, 3-(2,6-dichlorophenyl)-1-methyl-7-((4-(4-methyl-3-(trifluoromethyl)piperazin-1-yl)phenyl)amino)-2,3-dihydropyrimido[4,5-d]pyrimidin-4(1H)-one] | ≥ 100 | –
COCc1cc(Nc2ncc3c(n2)N(C)CN(c2c(Cl)cccc2Cl)C3=O)ccc1N1CCN(C)CC1 [Example 69] | 10 to 100 | –
CN1CN(c2c(Cl)cccc2Cl)C(=O)c2cnc(Nc3ccc4c(c3)C3CCC(C4)N3)nc21 (stereo not drawn) [Example 70, 3-(2,6-dichlorophenyl)-1-methyl-7-((6,7,8,9-tetrahydro-5H-5,8-epiminobenzo[7]annulen-3-yl)amino)-2,3-dihydropyrimido[4,5-d]pyrimidin-4(1H)-one] | 10 to 100 | –
CN1CN(c2c(Cl)cccc2Cl)C(=O)c2cnc(Nc3ccc(N4CC5COCC(C4)N5C)cc3)nc21 [Example 71, 3-(2,6-dichlorophenyl)-1-methyl-7-((4-(9-methyl-3-oxa-7,9-diazabicyclo[3.3.1]nonan-7-yl)phenyl)amino)-2,3-dihydropyrimido[4,5-d]pyrimidin-4(1H)-one] | 10 to 100 | –
CN1CN(c2c(Cl)cccc2Cl)C(=O)c2cnc(Nc3ccc(N4CCOCC4)c(CO)c3)nc21 [Example 73, 3-(2,6-dichlorophenyl)-7-((3-(hydroxymethyl)-4-morpholinophenyl)amino)-1-methyl-2,3-dihydropyrimido[4,5-d]pyrimidin-4(1H)-one] | 10 to 100 | –
C[C@@H]1CN[C@@H](C)CN1c1ccc(Nc2ncc3c(n2)N(C)CN(c2c(Cl)cccc2Cl)C3=O)cc1F [Example 81, 3-(2,6-dichlorophenyl)-7-((4-((2R,5S)-2,5-dimethylpiperazin-1-yl)-3-fluorophenyl)amino)-1-methyl-2,3-dihydropyrimido[4,5-d]pyrimidin-4(1H)-one] | 10 to 100 | –
COc1cc(Nc2ncc3c(n2)N(C)CN(c2c(Cl)cccc2Cl)C3=O)ccc1N1C[C@@H]2C[C@H]1CN2 [Example 82, 7-((4-((1S,4S)-2,5-diazabicyclo[2.2.1]heptan-2-yl)-3-methoxyphenyl)amino)-3-(2,6-dichlorophenyl)-1-methyl-2,3-dihydropyrimido[4,5-d]pyrimidin-4(1H)-one] | 10 to 100 | –
C[C@@H]1CN(c2ccc(Nc3ncc4c(n3)N(C3CC3)CN(c3c(Cl)cccc3Cl)C4=O)cc2)CCN1 [Example 85, (R)-1-cyclopropyl-3-(2,6-dichlorophenyl)-7-((4-(3-methylpiperazin-1-yl)phenyl)amino)-2,3-dihydropyrimido[4,5-d]pyrimidin-4(1H)-one] | 10 to 100 | –
Cc1cccc(Cl)c1N1CN(C)c2nc(Nc3ccc(N4CCNCC4)cc3)ncc2C1=O [Example 92, 3-(2-chloro-6-methylphenyl)-1-methyl-7-((4-(piperazin-1-yl)phenyl)amino)-2,3-dihydropyrimido[4,5-d]pyrimidin-4(1H)-one] | 10 to 100 | –
C[C@@H]1CN[C@@H](C)CN1c1ccc(Nc2ncc3c(n2)N(C)CN(c2c(F)cccc2Cl)C3=O)cc1 [Example 93, 3-(2-chloro-6-fluorophenyl)-7-((4-((2R,5S)-2,5-dimethylpiperazin-1-yl)phenyl)amino)-1-methyl-2,3-dihydropyrimido[4,5-d]pyrimidin-4(1H)-one] | 10 to 100 | –
C[C@@H]1CN(c2ccc(Nc3ncc4c(n3)N(C)CN(c3ccccc3Cl)C4=O)cc2)CCN1 [Example 94, (R)-3-(2-chlorophenyl)-1-methyl-7-((4-(3-methylpiperazin-1-yl)phenyl)amino)-2,3-dihydropyrimido[4,5-d]pyrimidin-4(1H)-one] | 10 to 100 | –
C[C@@H]1CN[C@@H](C)CN1c1ccc(Nc2ncc3c(n2)N(C)CN(c2ccccc2Cl)C3=O)cc1 [Example 98, 3-(2-chlorophenyl)-7-((4-((2R,5S)-2,5-dimethylpiperazin-1-yl)phenyl)amino)-1-methyl-2,3-dihydropyrimido[4,5-d]pyrimidin-4(1H)-one] | 10 to 100 | –
C[C@@H]1CN(c2ccc(Nc3ncc4c(n3)N(C)CN(c3ccccc3Cl)C4=O)cc2F)CCN1 [Example 99, (R)-3-(2-chlorophenyl)-7-((3-fluoro-4-(3-methylpiperazin-1-yl)phenyl)amino)-1-methyl-2,3-dihydropyrimido[4,5-d]pyrimidin-4(1H)-one] | 10 to 100 | –
Cc1cccc(Cl)c1N1CN(C)c2nc(Nc3ccc(N4CCN[C@H](C)C4)cc3)ncc2C1=O [Example 100, (R)-3-(2-chloro-6-methylphenyl)-1-methyl-7-((4-(3-methylpiperazin-1-yl)phenyl)amino)-2,3-dihydropyrimido[4,5-d]pyrimidin-4(1H)-one] | 10 to 100 | –
COCc1cc(Nc2ncc3c(n2)N(C)CN(c2c(C)cccc2Cl)C3=O)ccc1N1CCN[C@H](C)C1 [Example 101, (R)-3-(2-chloro-6-methylphenyl)-7-((3-(methoxymethyl)-4-(3-methylpiperazin-1-yl)phenyl)amino)-1-methyl-2,3-dihydropyrimido[4,5-d]pyrimidin-4(1H)-one] | 10 to 100 | –
CN1CN(c2ccccc2Cl)C(=O)c2cnc(Nc3ccc(N4CCNC5(CC5)C4)cc3)nc21 [Example 105, 7-((4-(4,7-diazaspiro[2.5]octan-7-yl)phenyl)amino)-3-(2-chlorophenyl)-1-methyl-2,3-dihydropyrimido[4,5-d]pyrimidin-4(1H)-one] | 10 to 100 | –
COc1cc(Nc2ncc3c(n2)N(C)CN(c2ccccc2Cl)C3=O)ccc1N1C[C@@H]2C[C@H]1CN2 [Example 107, 7-((4-((1S,4S)-2,5-diazabicyclo[2.2.1]heptan-2-yl)-3-methoxyphenyl)amino)-3-(2-chlorophenyl)-1-methyl-2,3-dihydropyrimido[4,5-d]pyrimidin-4(1H)-one] | 10 to 100 | –
C[C@@H]1CN[C@@H](C)CN1c1ccc(Nc2ncc3c(n2)N(C)CN(c2ccccc2Cl)C3=O)cc1F [Example 110, 3-(2-chlorophenyl)-7-((4-((2R,5S)-2,5-dimethylpiperazin-1-yl)-3-fluorophenyl)amino)-1-methyl-2,3-dihydropyrimido[4,5-d]pyrimidin-4(1H)-one] | 10 to 100 | –
CC(=O)N1CCN(c2ccc(Nc3ncc4c(n3)N(C)CN(c3c(Cl)cccc3Cl)C4=O)cc2)CC1 [Example 125, 7-((4-(4-acetylpiperazin-1-yl)phenyl)amino)-3-(2,6-dichlorophenyl)-1-methyl-2,3-dihydropyrimido[4,5-d]pyrimidin-4(1H)-one] | 10 to 100 | –
COc1cc(Nc2ncc3c(n2)N(C)CN(c2c(Cl)cccc2Cl)C3=O)ccc1C1CCNCC1 [Example 182, 3-(2,6-dichlorophenyl)-7-((3-methoxy-4-(piperidin-4-yl)phenyl)amino)-1-methyl-2,3-dihydropyrimido[4,5-d]pyrimidin-4(1H)-one] | ≤ 10 | –
COc1cc(Nc2ncc3c(n2)N(C)CN(c2c(Cl)cccc2Cl)C3=O)ccc1C1CCN(C)CC1 [Example 183, 3-(2,6-dichlorophenyl)-7-((3-methoxy-4-(1-methylpiperidin-4-yl)phenyl)amino)-1-methyl-2,3-dihydropyrimido[4,5-d]pyrimidin-4(1H)-one] | ≤ 10 | –
